# Source: US12410171B2, “Tropomyosin receptor kinase (TRK) degradation compounds and methods of use” (Cullgen (Shanghai), Inc., priority 2020, dated 2025)
# Target: T1, TPM3-TRKA fusion protein (Homo sapiens, UniProt P04629)
# T1 construct: The resulted chimeric proteins always retain the kinase domain of TRK proteins; TPM3 (fusion partner, N-terminal part of tropomyosin alpha-3, P06753); endogenous in cells; host or cells: KM12 colon cancer cells; the other entry of the earlier key: TPM3 (P06753, Tropomyosin alpha-3 chain)
# T1 sequence (P04629 with tags, fused parts or gaps): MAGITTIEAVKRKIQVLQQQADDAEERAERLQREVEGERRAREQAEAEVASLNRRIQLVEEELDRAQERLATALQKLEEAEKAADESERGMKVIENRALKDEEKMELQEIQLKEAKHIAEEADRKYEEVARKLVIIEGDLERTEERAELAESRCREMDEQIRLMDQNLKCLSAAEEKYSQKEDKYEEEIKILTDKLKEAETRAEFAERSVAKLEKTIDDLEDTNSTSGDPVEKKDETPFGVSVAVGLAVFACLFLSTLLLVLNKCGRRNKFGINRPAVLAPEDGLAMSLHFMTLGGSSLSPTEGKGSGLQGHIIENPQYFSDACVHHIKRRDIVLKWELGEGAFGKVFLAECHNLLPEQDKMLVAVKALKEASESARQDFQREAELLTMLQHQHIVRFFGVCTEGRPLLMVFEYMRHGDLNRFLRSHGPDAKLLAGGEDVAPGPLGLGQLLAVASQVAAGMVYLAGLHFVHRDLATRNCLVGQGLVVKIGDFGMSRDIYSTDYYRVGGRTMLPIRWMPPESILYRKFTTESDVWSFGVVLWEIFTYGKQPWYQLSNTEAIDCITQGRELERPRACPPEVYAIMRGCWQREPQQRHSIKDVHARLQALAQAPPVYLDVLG
# Test: TPM3-TRKA fusion protein levels in KM12 cells (Western blot)
# Format: cell-based
# Conditions: 16 h; TPM3-TRKA degradation in KM12 cells at 10 nM compound, category of percentage degradation; read-out: Degradation (at 10 nM)
# Procedure: KM12 cells were treated with DMSO or indicated compounds at 100 nM for 16 hours.
# KM12 cells were treated with DMSO or indicated compounds at 0. 1 nM, 1 nM or 10 nM for 16 hours.
# KM12 cells were treated with DMSO or indicated compounds at various concentrations for 16 hours.
# KM12 cells were treated with DMSO or indicated compounds at various concentrations for 4 hours.
# KM12 cells (a cancer model comprising a colon cancer cell line) were treated with DMSO or indicated compounds at various concentrations for 4 hours.
# KM12 cells were treated with heterobifunctional compounds or their corresponding control compounds at 10 nM or 100 nM for 16 hours.
# KM12 cells were treated with heterobifunctional compounds or their corresponding control compounds at 0.4-30 nM for 8-16 hours. […] Cells were authenticated using the short tandem repeat (STR) assays. […] Stable cell lines were established by lentivirus transduction, selected and maintained in medium containing 1 μg/mL puromycin (Beyotime Biotechnology).
# Cultured cells were washed with cold PBS once and lysed in cold RIPA buffer supplemented with protease inhibitors and phosphatase inhibitors (Beyotime Biotechnology). The solutions were then incubated at 4° C. for 30 minutes with gentle agitation to fully lyse cells. For tumor tissues, tumors were cut into small pieces, milled with cold RIPA buffer using a mechanical homogenizer and lysed for 1 hour at 4° C. Cell lysates were centrifuged at 13,000 rpm for 10 minutes at 4° C. and pellets were discarded. Total protein concentrations in the lysates were determined by BCA assays (Beyotime Biotechnology). Cell lysates were mixed with Laemmli loading buffer to 1× and heated at 99° C. for 5 min. Proteins were resolved on SDS-PAGE and visualized by chemiluminescence. Images were taken by a ChemiDoc MP Imaging system (Bio-Rad). Protein bands were quantitated using the software provided by Bio-Rad.
row,Structure (SMILES),percent degradation of TPM3-TRKA protein at 0.01 µM [%]
1,"O=C1CCC(N2C(=O)c3ccc(NCCCCCCCC(=O)N4CCN(c5cccc(-c6cnc7ccc(N8CCC[C@@H]8c8cccc(F)c8)nn67)n5)CC4)cc3C2=O)C(=O)N1 (stereo partly drawn) [TR-118, 2-(2,6-Dioxopiperidin-3-yl)-5-((8-(4-(6-(6-((R)-2-(3-fluorophenyl)pyrrolidin-1-yl)imidazo[1,2-b]pyridazin-3-yl)pyridin-2-yl)piperazin-1-yl)-8-oxooctyl)amino) isoindoline-1,3-dione]",> 80
2,"O=C(CN1CCN(c2ccc(C(=O)Nc3n[nH]c4ccc(Cc5cc(F)cc(F)c5)cc34)c(NC3CCOCC3)c2)CC1)NCCOCCOCCOCCOCCOCCNc1cccc2c1C(=O)N(C1CCC(=O)NC1=O)C2=O (stereo not drawn) [CPD-065, N-(5-(3,5-Difluorobenzyl)-1H-indazol-3-yl)-4-(4-(20-((2-(2,6-dioxopiperidin-3-yl)-1,3-dioxoisoindolin-4-yl)amino)-2-oxo-6,9,12,15,18-pentaoxa-3-azaicosyl)piperazin-1-yl)-2-((tetrahydro-2H-pyran-4-yl)amino)benzamide]",> 80
3,"O=C(CN1CCN(c2cccc(-c3cnc4ccc(N5CCC[C@@H]5c5cccc(F)c5)nn34)n2)CC1)NCCCCNc1ccc2c(c1)C(=O)N(C1CCC(=O)NC1=O)C2=O (stereo partly drawn) [TR-124, N-(4-((2-(2,6-dioxopiperidin-3-yl)-1,3-dioxoisoindolin-S-yl)amino)butyl)-2-(4-(6-(6-((R)-2-(3-fluorophenyl)pyrrolidin-1-yl)imidazo[1,2-b]pyridazin-3-yl)pyridin-2-yl)piperazin-1-yl)acetamide]",> 80
4,"COc1ccc(CN(CCN2CCN(c3cccc(-c4cnc5ccc(N6CCC[C@@H]6c6cccc(F)c6)nn45)n3)CC2)c2ccc3c(c2)C(=O)N(C2CCC(=O)NC2=O)C3=O)cc1 (stereo partly drawn) [TR-214, 2-(2,6-Dioxo-3-piperidyl)-5-(2-(4-(6-(6-((2R)-2-(3-fluorophenyl)pyrrolidin-1-yl)imidazo[1,2-b]pyridazin-3-yl)-2-pyridyl)piperazin-1-yl)ethyl-((4-methoxyphenyl)methyl)amino) isoindoline-1,3-dione]",< 50
5,"O=C1CCC(N2C(=O)c3cccc(NCCCCCC(=O)N4CCN(c5ccc(C(=O)Nc6n[nH]c7ccc(Cc8cc(F)cc(F)c8)cc67)c(NC6CCOCC6)c5)CC4)c3C2=O)C(=O)N1 (stereo not drawn) [CPD-056, N-(5-(3,5-Difluorobenzyl)-1H-indazol-3-yl)-4-(4-(6-((2-(2,6-dioxopiperidin-3-yl)-1,3-dioxoisoindolin-4-yl)amino)hexanoyl)piperazin-1-yl)-2-((tetrahydro-2H-pyran-4-yl)amino)benzamide]",> 80
6,O=C1CCC(N2C(=O)c3ccc(NCCOCCOCCOCCOCCOCCC(=O)N4CCN(c5cccc(-c6cnc7ccc(N8CCC[C@@H]8c8cccc(F)c8)nn67)n5)CC4)cc3C2=O)C(=O)N1 (stereo partly drawn) [TR-116],> 80
7,"O=C1CCC(N2Cc3cc(NCC4CN(c5cccc(-c6cnc7ccc(N8CCC[C@@H]8c8cccc(F)c8)nn67)n5)C4)ccc3C2=O)C(=O)N1 (stereo partly drawn) [TR-210, 3-(5-(((1-(6-(6-((R)-2-(3-Fluorophenyl)pyrrolidin-1-yl)imidazo[1,2-b]pyridazin-3-yl)pyridin-2-yl)azetidin-3-yl)methyl)amino)-1-oxoisoindolin-2-yl)piperidine-2,6-dione]",50 to 80
8,"O=C1CCC(N2C(=O)c3ccc(NCCN4CCN(c5ccc(C(=O)Nc6n[nH]c7ccc(Cc8cc(F)cc(F)c8)cc67)c(NC6CCOCC6)c5)CC4)cc3C2=O)C(=O)N1 (stereo not drawn) [TR-232, N-(5-(3,5-difluorobenzyl)-1H-indazol-3-yl)-4-(4-(2-((2-(2,6-dioxopiperidin-3-yl)-1,3-dioxoisoindolin-5-yl)amino)ethyl)piperazin-1-yl)-2-((tetrahydro-2H-pyran-4-yl)amino)benzamide]",> 80
9,"O=C1CCC(N2Cc3ccc(NCCN4CCN(c5cccc(-c6cnc7ccc(N8CCC[C@@H]8c8cccc(F)c8)nn67)n5)CC4)cc3C2=O)C(=O)N1 (stereo partly drawn) [TR-196, 3-(6-((2-(4-(6-(6-((R)-2-(3-fluorophenyl)pyrrolidin-1-yl)imidazo[1,2-b]pyridazin-3-yl)pyridin-2-yl)piperazin-1-yl)ethyl)amino)-1-oxoisoindolin-2-yl)piperidine-2,6-dione]",50 to 80
10,"O=C(CN1CCN(c2ccc(C(=O)Nc3n[nH]c4ccc(Cc5cc(F)cc(F)c5)cc34)c(NC3CCOCC3)c2)CC1)NCCCCNc1cccc2c1C(=O)N(C1CCC(=O)NC1=O)C2=O (stereo not drawn) [TR-155, N-(5-(3,5-Difluorobenzyl)-1H-indazol-3-yl)-4-(4-(2-((4-((2-(2,6-dioxopiperidin-3-yl)-1,3-dioxoisoindolin-4-yl)amino)butyl)amino)-2-oxoethyl)piperazin-1-yl)-2-((tetrahydro-2/-pyran-4-yl)amino)benzamide]",> 80
11,"O=C(CN1CCN(c2ccc(C(=O)Nc3n[nH]c4ccc(Cc5cc(F)cc(F)c5)cc34)c(NC3CCOCC3)c2)CC1)NCCCCCCCNc1ccc2c(c1)C(=O)N(C1CCC(=O)NC1=O)C2=O (stereo not drawn) [TR-157, N-(5-(3,5-Difluorobenzyl)-1H-indazol-3-yl)-4-(4-(2-((7-((2-(2,6-dioxopiperidin-3-yl)-1,3-dioxoisoindolin-5-yl)amino)heptyl)amino)-2-oxoethyl)piperazin-1-yl)-2-((tetrahydro-2H-pyran-4-yl)amino)benzamide]",> 80
12,"O=C1CCC(N2C(=O)c3cccc(NCCCC(=O)N4CCN(c5cccc(-c6cnc7ccc(N8CCC[C@@H]8c8cccc(F)c8)nn67)n5)CC4)c3C2=O)C(=O)N1 (stereo partly drawn) [CPD-013, 2-(2,6-Dioxopiperidin-3-yl)-4-((4-(4-(6-(6-((R)-2-(3-fluorophenyl)pyrrolidin-1-yl)imidazo[1,2-b]pyridazin-3-yl)pyridin-2-yl)piperazin-1-yl)-4-oxobutyl)amino) isoindoline-1,3-dione]",> 80
13,"O=C1CCC(N2C(=O)c3ccc(NCC(=O)N4CCN(c5ccc(C(=O)Nc6n[nH]c7ccc(Cc8cc(F)cc(F)c8)cc67)c(NC6CCOCC6)c5)CC4)cc3C2=O)C(=O)N1 (stereo not drawn) [TR-144, N-(5˜ (3,5-Difluorobenzyl)-1H-indazol-3-yl)-4-(4-((2˜ (2,6-dioxopiperidin-3-yl)-1,3-dioxoisoindolin-5-yl)glycyl)piperazin-1-yl)-2-((tetrahydro-2H-pyran-4-yl)amino)benzamide]",> 80
14,"O=C1CCC(N2C(=O)c3ccc(NCCOCCN4CCN(c5cccc(-c6cnc7ccc(N8CCC[C@@H]8c8cccc(F)c8)nn67)n5)CC4)cc3C2=O)C(=O)N1 (stereo partly drawn) [TR-176, 2-(2,6-Dioxopiperidin-3-yl)-5-((2-(2-(4-(6-(6-((R)-2-(3-fluorophenyl)pyrrolidin-1-yl)imidazo[1,2-b]pyridazin-3-yl)pyridin-2-yl)piperazin-1-yl)ethoxy)ethyl)amino) isoindoline-1,3-dione]",> 80
15,"O=C(CN1CCN(c2cccc(-c3cnc4ccc(N5CCC[C@@H]5c5cccc(F)c5)nn34)n2)CC1)NCCOCCOCCOCCOCCOCCNc1cccc2c1C(=O)N(C1CCC(=O)NC1=O)C2=O (stereo partly drawn) [TR-104, N-(17-((2-(2,6-dioxopiperidin-3-yl)-1,3-dioxoisoindolin-4-yl)amino)-3,6,9,12,15-pentaoxaheptadecyl)-2-(4-(6-(6-((R)-2-(3-fluorophenyl)pyrrolidin-1-yl)imidazo[1,2-b]pyridazin-3-yl)pyridin-2-yl)piperazin-1-yl)acetamide]",> 80
16,"O=C(CN1CCN(c2ccc(C(=O)Nc3n[nH]c4ccc(Cc5cc(F)cc(F)c5)cc34)c(NC3CCOCC3)c2)CC1)NCCOCCOCCOCCNc1cccc2c1C(=O)N(C1CCC(=O)NC1=O)C2=O (stereo not drawn) [CPD-064, N—(S-(3,5-Difluorobenzyl)-1H-indazol-3-yl)-4-(4-(14-((2-(2,6-dioxopiperidin-3-yl)-1,3-dioxoisoindolin-4-yl)amino)-2-oxo-6,9,12-trioxa-3-azatetradecyl)piperazin-1-yl)-2-((tetrahydro-2H-pyran-4-yl)amino)benzamide]",> 80

# Same assay, conditions: KM12, 16 h, read-out: Degradation (at 10 nM)
row,Structure (SMILES),percent degradation of TPM3-TRKA protein at 0.01 µM [%]
1,Cn1c(=O)n(C2CCC(=O)NC2=O)c2cccc(OCCCN3CCN(c4cccc(-c5cnc6ccc(N7CCC[C@@H]7c7cccc(F)c7)nn56)n4)CC3)c21 (stereo partly drawn) [TR-245],< 50
2,"O=C1CCC(N2C(=O)c3ccc(N4CC(N5CCN(c6cccc(-c7cnc8ccc(N9CCC[C@@H]9c9cccc(F)c9)nn78)n6)CC5)C4)cc3C2=O)C(=O)N1 (stereo partly drawn) [TR-184, 2-(2,6-dioxopiperidin-3-yl)-5-(3-(4-(6-(6-((R)-2-(3-fluorophenyl)pyrrolidin-1-yl)imidazo[1,2-b]pyridazin-3-yl)pyridin-2-yl)piperazin-1-yl)azetidin-1-yl)isoindoline-1,3-dione]",> 80
